From patent US6429291B1, “Hyaluronan receptor protein” (priority 1994, dated 2002)
Entries after “also recorded” stand apart in the source; their conditions may differ.

Columns and labels:
C3 fibroblasts [1] = experiment: Cell locomotion assay, timelapse image analysis of C3 fibroblasts; type: cell-based, murine; conditions: 70% confluent C3, 2 h
Procedure: For motility experiments, 10^5 cells were subcultured into 25 cm^2 tissue culture flasks (Corning), and maintained for 12 h as above. The medium was then aspirated, cells were rinsed with Hanks Balanced Salt Solution (HBSS) (Gibco) and fresh, serum-free α-MEM containing 4.0 μg/ml transferrin (Gibco) and 2.0 μg/ml insulin (Sigma) (defined medium) was added to the flasks.
Cell locomotion was recorded using a computerized timelapse analysis system (Image 1, Universal Imaging Corporation, Westchester, Pa.) that measures nuclear displacement. During the filming period, cells were maintained at 37° C. in defined-media at physiological pH.
A 10 amino acid peptide corresponding to one of the HA binding domains of RHAMM, peptide^aa423-432 (Yang et al., 1993), was synthesised and added at various concentrations (0,0.1, 1.0, 5.0, 10.0 and 50.0 ng/ml) to 70% confluent C3 fibroblasts. Cell locomotion was monitored by image analysis for 2 h from the addition of the peptide. A scrambled peptide was used as control.
RHAMM-GST fusion protein prepared and purified as described in (b) above was added at concentrations of 1 pg/ml, 1 ng/ml, 1 μg/ml and 1 mg/ml to 70% confluent C3 cultures and cell locomotion was monitored by image analysis for 2 h from protein addition as described in Example 5.
For each experiment, 30 cells were tracked every 10 min for a 1 hr period.
RHAMM-GST fusion protein, as described in (d) above, and deleted/mutated RHAMM-GST fusion protein, as described in (h) above were added at 5 ng/ml to subconfluent cultures of C3 cells and cell locomotion was monitored by image analysis for 2 h from protein addition as described in Example 5.

macrophage cell line S1 = experiment: Macrophage chemotaxis to endotoxin-activated mouse serum, S1; type: cell-based
Procedure: (§1) The macrophage cell lines S1 and WEHI-3 (Branch et al., 1989) were used to analyze the effect of antibodies and synthetic peptide on macrophage chemotaxis to endotoxin-activated mouse serum (AS). These cells lines were also maintained in DME with 10% FCS and 20 mM Hepes buffer, pH 7.2 at 37° C. and 5% CO2 in air.
(§2) Chemotaxis was stimulated using either bacterial endotoxin-activated mouse serum (AS), prepared according to Stevenson et al. (1981) for macrophages and macrophage cell lines, or 100 ng/ml interleukin-8 (IL-8) for neutrophils. Heat-inactivated serum (56° C. for 20 mintes) or medium served as negative controls respectively. The chemotactic assay used was a colorometric assay described in Shi et al., (1993). Briefly, a 96-well chemotaxis chamber with a lower recess large enough to hold a microtiter plate (Neuro Probe, stock#MBA96) and a 5 μm framed filter (Neuro Probe, stock#PFD5/A) were used. The microtiter plate was filled with chemoattractants and controls and placed in the recess of the chemotaxis chamber. […] The number of displaced cells was quantified by the addition of 3-(4.5-dimethylthiazol-2-yl)-2,5-[…] tetrazolium bromide (MTT) to a final concentration of 250 μg/ml that was incubated at 37° C. for 4 hours. […] The plate was analysed within 2 hours on a microtiter plate ELISA reader with a filter of 540 nm. […]

smooth muscle cells = experiment: Smooth muscle cell migration after wounding of monolayers; type: cell-based, bovine; conditions: peptides 2 μg/ml
Procedure: Smooth muscle cells were isolated from bovine aorta as described previously from rat aorta (Majack et al., 1984) and were maintained in Dulbecco's Modified Eagles medium (DME) supplemented with 10% fetal calf serum (FCS) and 20 mM HEPES buffer, pH 7.2 at 37° C. and 5% CO2 in air. All experiments were performed using defined medium [DME with 20 mM HEPES buffer, pH 7.2, 0.5 U/ml insulin (beef and pork zinc suspension, Novo Laboratories Ltd., Willowdale, Ontario) and 4 μg/ml transferrin (Sigma Chemical Co., St. Louis, Mo.)], and the culture medium was replaced 24 hours before filming. Wounding injury to confluent monolayers consisted of removal of half the monolayer using a cell lifter followed by the addition of fresh defined medium in the presence of either RHAMM peptide aa401-411 or the scrambled peptide of the same domain as described above.
The HA-binding region of RHAMM consists of two 10 amino acid domains located close to the carboxy terminus of the protein (Yang, 1993). A peptide mimicking Domain 1 (amino acids 401-411)—YKQKIKHVVKLK—and a scrambled peptide consisting of the same amino acids arranged in a random manner—YLKQKKVKKHIV—were synthesized. Both peptides were used at a final concentration of 2 μg/ml in locomotion assays.
Injured cell monolayers were monitored for motility using an IM 35 Zeiss inverted microscope to which a video camera (Hamamatsu CCD, Inc., Japan) was attached. The cells were maintained at 37° C. using a heated platform (TRZ 3700, Zeiss, Germany). Cell locomotion was followed by using image analysis (Image 1, Universal Imaging Corp., Westchester, Pa. This program allows quantification of nuclear displacement from a sequence of digitalized images. The motility of thirty cells in each experiment was followed for a period of 24 hours with mean velocities calculated every hour.

[2] = system: human breast cancer cell lines; experiment: Locomotion of human breast cancer cell lines (timelapse image analysis); type: cell-based; conditions: R3 5 μg/ml; peptide I 2 μg/ml; P<0.001
Procedure: Cells were cultured as described above. For cell locomotion studies, aliquots of 10^5 cells were added to a 25 cm^2 tissue culture flask (Corning). After 24 hours of growth, cells were washed with calcium and magnesium free Hank's balanced salt solution (HBSS) (Gibco BRL), the defined serum-free media (DM), DMEM supplied with 4.0 μg/ml transferrin (Human, Gibco BRL), 0.5 U/ml Lente insulin (beef and pork, Connaught Novo Ltd., Willowdale, Ontario) and 20 mM Hepes, PH 7.2, was added to the flasks. Twelve hours later, cell locomotion was recorded by using a computerized timelapse image analysis system (Image-1, Universal Image Corporation, Westchester, Pa.) which quantitates nuclear displacement Antibody—R3 (5 μg/ml), peptide I (2 μg/ml), control rabbit IgG (5 μg/ml) or scrambled peptide I (2 μg/ml) were added to media 20 min before the beginning of filming. Images were taken with a Zeiss inverted microscope (model IM35, Zeiss) using a 10× objective every 30 min for 3 hours. A minimum of 30 cells were tracked in each above experimental condition; experiments done in triplicate.

Human neutrophils = experiment: Neutrophil chemotaxis to IL-8 (modified Boyden chamber); type: cell-based; conditions: 100 ng/ml IL-8
Procedure: Human neutrophils were obtained from peripheral blood samples of normal volunteers and mixed in ACD solution (0.085 M trisodium citrate, 0.065 M citric acid, 2% dextrose) to prevent clotting. Five percent dextran was added and the separated plasma and white blood cells were removed. The cells were washed twice in PBS, pH 7.2 and a Ficoll gradient was used to separate the lymphocytes. The isolated neutrophils were then washed and resuspended in PBS. Red cells were lysed by brief exposure to hypotonic PBS.
as §2, with “(1993).” for “(1993). Briefly, a 96-well chemotaxis chamber with a lower recess large enough to hold a microtiter plate (Neuro Probe, stock#MBA96) and a 5 μm framed filter (Neuro Probe, stock#PFD5/A) were used. The microtiter plate was filled with chemoattractants and controls and placed in the recess of the chemotaxis chamber.”

[3] = system: macrophage cell line WEHI-3; experiment: Macrophage chemotaxis to endotoxin-activated mouse serum, WEHI-3; type: cell-based
Procedure: as §1, §2

C3 fibroblasts [4] = experiment: Focal adhesion formation (vinculin immunofluorescence) and cell spreading of C3 fibroblasts; type: cell-based, murine; conditions: for cells with focal adhesion staining (vinculin plaque-positive cells): 100 ng/mL
Procedure: The ras-transformed 10T½ cells termed C3 (Egan et al., 1987) were grown on fibronectin coated glass coverslips for 24 hrs. The cells were then exposed to RHAMM I-2a (1 ng/ml to 1 mg/ml) for 2 hrs at 37° C. before fixing with 3% paraformaldehyde/phosphate buffered saline (PBS). Cells were then washed three times with 10% fetal calf serum PBs, permeabilized with 0.2% triton X-100/PBS for 3 min, and washed again. The coverslips were then incubated with anti-vinculin (Sigma, 1:75 dilution) or an identical concentration of nonspecific mouse IgG for 1 hr at 37° C. After washing, the coverslips were incubated with rhodamine labelled goat anti-mouse antibody (1:200, Sigma) for 2 hrs at room temperature. After further washings, the coverslips were mounted on glass slides and viewed on a Zeiss Axiovert 35 M fluorescent microscope.

peptide^aa423-432: 10 amino acid peptide corresponding to one of the HA binding domains of RHAMM (KEVELEKHIA; UniProt Q00547 423-432, looked up, fragment)
concentration at which cell locomotion was significantly inhibited (C3 fibroblasts [1]): ≥ 5 ng/mL

YKQKIKHVVKLK [peptide aa^401-411]
effect on chemotaxis to endotoxin-activated mouse serum (macrophage cell line S1): inhibited
effect on rate of translocation of smooth muscle cells after wounding (smooth muscle cells): significantly reduced the rate of translocation
effect on rate of translocation of smooth muscle cells after wounding (smooth muscle cells; listed as Peptide aa^401-411): significantly inhibited the rate of translocation
effect on locomotion of all cell lines [2]: reduced significantly
effect on neutrophil chemotaxis to IL-8 (Human neutrophils): completely inhibited; also recorded: significantly inhibited
effect on chemotaxis to endotoxin-activated mouse serum [3]: inhibited

YLKQKKVKKHIV [scrambled peptide, same amino acids as peptide aa401-411 arranged in a random manner, reference compound]
effect on rate of translocation of smooth muscle cells after wounding (smooth muscle cells): no effect on the wounding response

B1: RHAMM I-2a-GST fusion protein: GST fusion protein of the secreted RHAMM isoform I-2a (with alternatively spliced exon 2A) (protein)
chain: MRALSLELMKLRNKRETKMRSMMVKQEGMELKLQATQKDLTESKGKIVQLEGKLVSIEKEKIDEKCETEKLLEYIQEISCASDQVEKCKVDIAQLEEDLKEKDREILSLKQSLEENITFSKQIEDLTVKCQLLETERDNLVSKDRERAETLSAEMQILTERLALERQEYEKLQQKELQSQSLLQQEKELSARLQQQLCSFQEEMTSEKNVFKEELKLALAELDAVQQKEEQSERLVKQLEEERKSTAEQLTRLDNLLREKEVELEKHIAAHAQAILIAQEKYNDTAQSLRDVTAQLESVQEKYNDTAQSLRDVTAQLESEQEKYNDTAQSLRDVTAQLESEQEKYNDTAQSLRDVTAQLESVQEKYNDTAQSLRDVTAQLESYKSSTLKEIEDLKLENLTLQEKVAMAEKSVEDVQQQILTAESTNQEYARMVQDLQNRSTLKEEEIKEITSSFLEKITDLKNQLRQQDEDFRKQLEEKGKRTAEKENVMTELTMEINKWRLLYDELYEKTKPFQQQLDAFEAEKQALLNEHGATQEQLNKIRDSYAQLLGHQNLKQKIKHVVKLKDENSQLKSEVSKLRSQLVKRKQNELRLQGELDKALGIRHFDPSKAFCHASKENFTPLKEGNPNCC
cells being vinculin plaque positive (C3 fibroblasts [4]; 1 ng/mL, 2 hrs): 75%
cells with focal adhesion staining (vinculin plaque-positive cells) (C3 fibroblasts [4]; 2 hrs): < 50%
cells with focal adhesion staining (vinculin plaque-positive cells) (C3 fibroblasts [4]; 2 hrs, listed as RHAMM I-2a): > 50%
vinculin plaque-positive cells (C3 fibroblasts [4]; 1 mg/mL, 2 hrs): > 50%
effect on cell morphology (C3 fibroblasts [4]; various concentrations for 2 hours, data not shown): stimulate cell spreading
